Measured values as given in ChEMBL document CHEMBL5360657, “Discovery of the TLR7/8 Antagonist MHV370 for Treatment of Systemic Autoimmune Diseases” (ACS Med Chem Lett, 2023).

What was measured:
[1] = Cmax in mouse at 3 mg/kg, iv; format: ADME, organism-based; design: dose 3 mg/kg, route iv; settings: in vivo
[2] = molecular target: T1, Nuclear receptor subfamily 1 group I member 2 (Homo sapiens, UniProt O75469); experiment: Induction of PXR (unknown origin) relative to control
T1 sequence (O75469 whole entry): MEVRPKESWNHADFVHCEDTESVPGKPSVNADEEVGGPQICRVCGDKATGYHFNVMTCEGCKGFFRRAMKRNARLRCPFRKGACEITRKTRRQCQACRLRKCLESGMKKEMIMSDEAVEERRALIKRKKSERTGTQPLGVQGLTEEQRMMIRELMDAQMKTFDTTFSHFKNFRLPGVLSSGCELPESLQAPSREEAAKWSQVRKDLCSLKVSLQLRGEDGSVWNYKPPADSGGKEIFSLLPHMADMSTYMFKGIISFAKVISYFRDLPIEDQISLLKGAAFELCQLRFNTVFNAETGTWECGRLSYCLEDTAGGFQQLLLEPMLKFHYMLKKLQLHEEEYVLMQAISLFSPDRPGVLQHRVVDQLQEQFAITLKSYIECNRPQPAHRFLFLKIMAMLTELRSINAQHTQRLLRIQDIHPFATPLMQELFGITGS

[3] = Inhibition of CYP2D9 (unknown origin); format: ADME, Homo sapiens
[4] = molecular target: Cytochrome P450 2D6 (Homo sapiens, UniProt P10635); experiment: Inhibition of CYP2D6 (unknown origin); format: ADME
[5] = Clearance in mouse at 3 mg/kg, iv; format: ADME, organism-based; settings: in vivo
[6] = Cmax in mouse at 20 mg/kg, po; format: ADME, organism-based; design: dose 20 mg/kg, route po; settings: in vivo
[7] = molecular target: Toll-like receptor 7 (Mus musculus) (UniProt P58681); experiment: In vivo antagonist activity against TLR7 in po dosed mouse assessed as suppression of TNF level measured at 3 hrs by LC-MS/MS analysis; settings: dose 1-30 mg/kg

Sequence of Cytochrome P450 2D6 (P10635 whole entry): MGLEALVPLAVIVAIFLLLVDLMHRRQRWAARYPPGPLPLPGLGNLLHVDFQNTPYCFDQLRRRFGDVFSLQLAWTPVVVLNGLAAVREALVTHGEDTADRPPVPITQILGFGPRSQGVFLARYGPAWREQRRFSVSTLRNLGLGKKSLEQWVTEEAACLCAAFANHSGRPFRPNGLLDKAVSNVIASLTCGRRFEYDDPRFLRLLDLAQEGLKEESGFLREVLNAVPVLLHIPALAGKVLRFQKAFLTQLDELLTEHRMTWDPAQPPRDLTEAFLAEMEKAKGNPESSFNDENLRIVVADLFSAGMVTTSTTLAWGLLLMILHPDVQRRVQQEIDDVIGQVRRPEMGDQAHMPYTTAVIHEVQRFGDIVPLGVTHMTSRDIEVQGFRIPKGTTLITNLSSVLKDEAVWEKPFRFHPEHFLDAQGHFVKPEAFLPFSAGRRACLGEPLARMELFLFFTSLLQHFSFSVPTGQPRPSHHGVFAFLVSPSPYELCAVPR

Cmax [1] | Activity [2] | IC50 [3] | IC50 [4] | clearance [5] | Cmax [6] | SMILES | Activity [7]
321 nM | 7.9% | > 25 µM | > 25 µM | 24 mL/min/kg | 321 nM | Cc1cc(N2CCc3c(c(C)nn3CC34CCC(N)(CC3)CC4)C2)c2cnn(C)c2n1 | –
– | – | – | – | – | – | Cc1cc(N2CCc3c(c(C)nn3CC34CCC(NC(=O)[C@@H]5COCCN5)(CC3)CC4)C2)c2cnn(C)c2n1 [MHV-370] | Dose-Dependent Effect
